Common to all, as to type: cell-based
One assay relates to FGFR1. In words: Western blot of FGFR phosphorylation, H1581 and H2444 cells. Particulars: H1581 and H2444, FIG. 4F. As to the method: FIGS. 4A-4H illustrate the finding that NGI-1 blocks RTK driven proliferation. FIG. 4A illustrates western blot analysis of EGFR phosphorylation (Y1173) and gel mobility in PC9 (EGFR-mutant) and A549 (k-ras mutant) NSCLC cells after 10 μM NGI-1 treatment for 24 h. […] Actin expression was used as a control for protein loading. FIG. 4B illustrates MTT assays results of PC9 following treatment with 10 μM NGI-1 or 1 μM tunicamycin for a total of 5 d. Relative proliferation id reported in fold increase from day 0. FIG. 4C illustrates MTT assays results of A549 following treatment with 10 μM NGI-1 or 1 μM tunicamycin for a total of 5 d. Relative proliferation id reported in fold increase from day 0. FIG. 4D illustrates protein phosphorylation profiles of PC9 cells analyzed by phospho-protein array to assess the response of PC9 to 10 μM NGI-1 for 24 h. FIG. 4E illustrates protein phosphorylation profiles of A549 cells analyzed by phospho-protein array to assess the response of A549 to 10 μM NGI-1 for 24 h. FIG. 4F illustrates western blot analysis of FGFR phosphorylation (Y653/654) and gel mobility for H1581 (TKI sensitive) and H2444 (TKI insensitive) NSCLC cell lines. […] FIG. 4G illustrates MTT assays for H1581 cells treated with 10 μM NGI-1 for 5 d. Asterisk (***) indicates a significant difference p<0.001 for MTT. FIG. 4H illustrates MTT assays for H2444 cells treated with 10 μM NGI-1 for 5 d. […]
Background: Immunoblotting shows a protein as a band on a membrane.

The test system of another assay is H3255 cells. Kind of assay: MTT proliferation assay, H3255. Conditions: H3255, 10 μM NGI-1, 5 d, p<0.05. As to the method:
(§1) FIGS. 7A-7D illustrate EGFR kinase domain mutant cell lines growth inhibition and cell cycle arrest response to NGI-1. FIG. 7A illustrates MTT assays to determine the effects of NGI-1 on growth of H3255 cells. FIG. 7B illustrates MIT assays to determine the effects of NGI-1 on growth of HCC827 cells. EGFR kinase domain mutant cell lines H3255 and HCC827 cells were untreated or treated with 10 μM NGI-1 for 5 d. […] FIG. 7C illustrates cell cycle distribution of H3255 after 24 h NGI-1 treatment for 24 h determined by flow cytometry. FIG. 7D illustrates cell cycle distribution of HCC827 after 24 h NGI-1 treatment for 24 h determined by flow cytometry.
Growth rates were determined by CellTiter 96 NonRadioactive Cell Proliferation Assay (Promega; Madison, Wis. USA) according to the manufacturer's directions. Briefly, NSCLC cells (2×10^3) untreated or treated with […] NGI-1 or 1 μM Tn, were seeded in triplicates in 96-wells plates and grown in culture medium containing […]. Cell numbers were estimated after 0, 3, and 5 days by adding MTT [(3-(4,5-Dimethylthiazol-2-yl)-2,5-diphenyltetrazolium bromide] reagent to the wells 4 hours before taking the spectrophotometric reading (absorbance at 570 nm).
(In general: Tetrazolium dyes change colour on reduction, which living cells bring about.)

The next assay relates to HCC827 cells. In words: Cell cycle distribution by flow cytometry, HCC827. Conditions: HCC827, NGI-1 24 h, p<0.01. As to the method:
as §1
For the assessment of cell cycle distribution, 1×10^6 cells were collected, washed once with ice-cold PBS and fixed in ice-cold 70% ethanol overnight at −20° C. Thereafter, cells were washed twice with PBS and incubated for 30 min at room temperature in 200 μL of Guava Cell Cycle Reagent (Guava Technologies). Cytofluorometric acquisitions were performed on a LSRII cytometer (BD Biosciences). First-line analysis was performed with Flow Jo software, upon gating on the events characterized by normal forward and side scatter parameters and discrimination of doublets in a FSC-A vs. FSC-H bivariate plot. Approximately 30,000 cells were analyzed per experiment, and the mean value was obtained from 3 independent assays.
In general terms: In flow cytometry, cells or beads pass a laser one at a time.

For another assay, the system named is A549 cells. In words: Apoptosis by flow cytometry (Annexin-V, 7-AAD), A549. Conditions: A549, NGI-1 10 μM for 2 or 5 days, or Tn 1 μM. The method, then: Analysis of apoptosis susceptibility in A549 and PC9 NSCLC cell lines followed treatment with NGI-1 10 μM or Tn 1 μM for 2 days was done by flow cytometry after staining the cells with Annexin-V (early apoptosis) and 7-AAD (viability dye). […] FIG. 9C: Western blot of BIP protein for A549 and PC9 cells after treatment with 10 μM NGI-1 for 6, 12 or 24 h. The expression of GAPDH was used as a loading control.

A value given as a limit tells only on which side of the number the result lay.

On to `Cc1cnc(NC(=O)c2cc(S(=O)(=O)N(C)C)ccc2N2CCCC2)s1` [NGI-1, 5-(N,N-Dimethylsulfamoyl)-N-(5-methylthiazol-2-yl)-2-(pyrrolidin-1-yl)benzamide], for which, in the assay on FGFR1, the FGFR1 phosphorylation result is “blocked FGFR1 phosphorylation”. In the assay with H3255 cells, the “reduction of proliferation, MTT” value is reported as above 45%. Also, in the assay on HCC827 cells, the cell cycle distribution entry is “undergo G1 arrest”. The induction of apoptosis entry in the assay on A549 cells is “did not induce apoptosis”.

For the origin of these results see US11219625B2, “Inhibitors of N-linked glycosylation and methods using same” (YALE UNIVERSITY, priority 2015, dated 2022).
